Consider 6 compounds from patent publication US20150330991A1, “METHOD FOR IMPROVING TARGET AFFINITY OF PEPTIDE” (GWANGJU INSTITUTE OF SCIENCE AND TECHNOLOGY, priority 2012, published 2015).

Test [1] has as its target T1, ED-B protein (Homo sapiens, UniProt P02751).
T1 construct: Biopanning on ED-B domain
Nature of the test: SPR (BIAcore) binding strength assay on immobilized biotin-EDB. The conditions noted are these: for Kd: read-out: KD = Koff/Kon. As to the method: The bipodal peptide binder found from BPB2EDB, BPB3EDB, and BPB4EDB maturation libraries were synthesized (Anygen, Korea). The affinity measurement was conducted using BIAcore X (Biacore AB, Uppsala, Sweden). 2,000 RU of biotin-EDB was allowed to flow on the streptavidin SA chip (Biacore) for immobilization. PBS (pH 7.4) was used as a running buffer, and kinetics at different concentrations was measured under a flow rate of 30 μl per minute. The affinity was calculated using BlAevaluation software (Biacore AB, Uppsala, Sweden).

Test [2] deals with T2, streptavidin (Streptomyces avidinii, UniProt P22629). Nature of the test: SPR (BIAcore) binding assay of Strep_opti1 and control peptide on immobilized streptavidin. To be noted: from KD values. Here is the method: A streptavidin-binding peptide optimized peptide and an existing peptide were synthesized (Anygen). The affinity measurement was conducted using BIAcore X (Biacore AB, Uppsala, Sweden). Here, 2000 RU of streptavidin was allowed to flow on the CM5 chip (Biacore) for immobilization. PBS (pH 7.4) was used as a running buffer, and the kinetics at different concentrations was measured under a flow rate of 30 μl per minute. The affinity was calculated using BlAevaluation software (Biacore AB, Uppsala, Sweden).
T2 sequence (P22629 25-183): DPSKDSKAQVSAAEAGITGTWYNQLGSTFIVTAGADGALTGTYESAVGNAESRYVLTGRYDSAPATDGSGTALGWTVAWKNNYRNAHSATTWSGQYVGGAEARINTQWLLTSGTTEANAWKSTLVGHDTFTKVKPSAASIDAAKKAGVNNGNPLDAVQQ

Test [3] has as its target T2, streptavidin. Kind of test: Phage ELISA specificity to streptavidin versus BSA, ovalbumin and VEGF. The format is binding. To be noted: ovalbumin, VEGF coated wells. As to the method:
In order to investigate specificities to streptavidin, of peptides (Strep_opti1 and Strep_opti2) obtained through sequencing, recombinant phages expressing these peptides were used to investigate specificities to streptavidin, BSA, ovalbumin, and VEGF. First, 5 μg/ml streptavidin, BSA, ovalbumin, and VEGF were put in a 96-well ELISA plate (50 μl per well), and then allowed to stand at 4° C. overnight. Next day, all the wells were washed three times with 0.1% PBST, and blocked at room temperature for 2 hrs using 2% BSA diluted with PBS. Then, the solution was discarded, followed by washing with 0.1% PBST three times. 800 μl of recombinant phages of each of Strep_opti1 and Strep_opti2 and 200 μl of 10% BSA were added thereto, and each 100 μl was dispensed into streptavidin, BSA, ovalbumin, and VEGF wells, followed by standing at 27° C. for 1 hr. After washing five times with 0.1% PBST solution, the HRP-conjugated anti-M13 antibody (GE Healthcare) was diluted to 1:1,000, and then the reaction was performed at 27° C. for 1 hr. After washing five times with 0.1% PBST, 100 μl of the TMB solution was dispensed into each well to induce a colorimetric reaction, and then the reaction was stopped by adding 100 μl of 1 M HCl. The absorbance was measured at 450 nm.
Background: ELISA stands for enzyme-linked immunosorbent assay.

The target in test [4] is VEGFR1 (Homo sapiens, UniProt P17948). Kind of test: SPR (BIAcore) binding assay of VEGFR1_opti1 and control peptide on immobilized VEGFR1. Here is the method:
A VEGFR1-binding peptide optimized peptide and an existing peptide were synthesized (Anygen). The affinity measurement was conducted using BIAcore X (Biacore AB, Uppsala, Sweden). Here, 7000 RU of VEGFR1 was allowed to flow on the CM5 chip (Biacore) for immobilization. PBS (pH 7.4) was used as a running buffer, and the kinetics at different concentrations was measured under a flow rate of 30 μl per minute. The affinity was calculated using BlAevaluation software (Biacore AB, Uppsala, Sweden).

Peptide text beside a SMILES is read from it.

T1 sequence (P02751 1271-1359 limits assumed): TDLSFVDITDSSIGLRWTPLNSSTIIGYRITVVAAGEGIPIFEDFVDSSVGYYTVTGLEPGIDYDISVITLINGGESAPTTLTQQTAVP
Sequence of VEGFR1 (P17948 27-1338, species assumed): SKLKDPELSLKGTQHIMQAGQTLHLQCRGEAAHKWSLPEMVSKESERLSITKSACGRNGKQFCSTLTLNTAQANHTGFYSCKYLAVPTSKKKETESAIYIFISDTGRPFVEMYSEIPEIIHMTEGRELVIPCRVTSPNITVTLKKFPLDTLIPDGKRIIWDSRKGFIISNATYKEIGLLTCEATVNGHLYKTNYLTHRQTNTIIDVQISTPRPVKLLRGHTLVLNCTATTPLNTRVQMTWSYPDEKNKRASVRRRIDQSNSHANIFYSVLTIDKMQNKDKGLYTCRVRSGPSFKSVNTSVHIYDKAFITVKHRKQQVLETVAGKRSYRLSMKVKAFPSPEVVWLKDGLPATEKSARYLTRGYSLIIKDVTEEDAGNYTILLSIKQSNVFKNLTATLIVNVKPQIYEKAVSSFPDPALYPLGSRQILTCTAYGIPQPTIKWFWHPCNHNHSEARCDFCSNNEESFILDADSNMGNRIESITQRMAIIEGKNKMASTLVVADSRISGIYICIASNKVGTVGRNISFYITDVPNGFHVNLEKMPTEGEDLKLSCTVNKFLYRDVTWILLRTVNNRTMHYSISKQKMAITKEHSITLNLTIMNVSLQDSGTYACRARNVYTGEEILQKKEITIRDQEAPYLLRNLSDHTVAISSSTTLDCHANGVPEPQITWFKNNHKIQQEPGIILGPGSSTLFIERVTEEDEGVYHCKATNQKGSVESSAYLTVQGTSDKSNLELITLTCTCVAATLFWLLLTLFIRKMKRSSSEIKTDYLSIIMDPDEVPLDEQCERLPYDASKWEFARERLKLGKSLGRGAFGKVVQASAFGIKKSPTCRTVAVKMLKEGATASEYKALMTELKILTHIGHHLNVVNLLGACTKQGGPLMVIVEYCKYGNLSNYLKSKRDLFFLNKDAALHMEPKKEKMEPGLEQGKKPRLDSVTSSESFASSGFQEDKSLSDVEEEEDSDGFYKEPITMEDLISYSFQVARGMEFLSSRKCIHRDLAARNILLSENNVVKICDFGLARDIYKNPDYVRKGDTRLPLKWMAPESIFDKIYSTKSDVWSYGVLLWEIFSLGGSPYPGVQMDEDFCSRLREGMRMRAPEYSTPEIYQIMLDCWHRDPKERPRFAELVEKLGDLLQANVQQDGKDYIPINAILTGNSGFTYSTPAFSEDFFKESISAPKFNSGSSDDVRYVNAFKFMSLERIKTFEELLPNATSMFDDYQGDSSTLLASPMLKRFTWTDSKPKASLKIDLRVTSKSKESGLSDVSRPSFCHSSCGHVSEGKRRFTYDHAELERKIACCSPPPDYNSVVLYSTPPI

In the case of `CC[C@H](C)[C@H](NC(=O)CNC(=O)[C@H](CCCCN)NC(=O)[C@H](Cc1c[nH]c2ccccc12)NC(=O)[C@@H](NC(=O)[C@H](Cc1c[nH]c2ccccc12)NC(=O)[C@H](CCCCN)NC(=O)CNC(=O)[C@H](CC(N)=O)NC(=O)[C@H](CCC(=O)O)NC(=O)[C@H](Cc1c[nH]c2ccccc12)NC(=O)[C@@H](NC(=O)[C@H](Cc1c[nH]c2ccccc12)NC(=O)[C@H](CO)NC(=O)CNC(=O)[C@@H](NC(=O)[C@H](C)NC(=O)[C@H](CO)NC(=O)[C@H](CO)NC(=O)[C@H](CS)NC(=O)[C@@H](N)Cc1c[nH]cn1)C(C)C)[C@@H](C)O)[C@@H](C)O)C(=O)N[C@H](C(=O)N[C@@H](CCCNC(=N)N)C(=O)N[C@@H](CC(C)C)C(=O)N[C@@H](CCC(=O)O)C(=O)N[C@@H](CCC(N)=O)C(=O)O)[C@@H](C)CC` [BPB1EDB] (H-HCSSAVGSWTWENGKWTWKGIIRLEQ-OH; N-terminus and C-terminus assumed), the Kd in test [1] (SPR, target binding kinetics) was determined as 75 nM.

On to `CC[C@H](C)[C@H](NC(=O)CNC(=O)[C@H](CCCCN)NC(=O)[C@H](Cc1c[nH]c2ccccc12)NC(=O)[C@@H](NC(=O)[C@H](Cc1c[nH]c2ccccc12)NC(=O)[C@H](CCCCN)NC(=O)CNC(=O)[C@H](CC(N)=O)NC(=O)[C@H](CCC(=O)O)NC(=O)[C@H](Cc1c[nH]c2ccccc12)NC(=O)[C@@H](NC(=O)[C@H](Cc1c[nH]c2ccccc12)NC(=O)[C@H](CO)NC(=O)CNC(=O)[C@H](CCC(N)=O)NC(=O)[C@@H](NC(=O)[C@@H]1CCCN1C(=O)[C@H](CO)NC(=O)[C@H](CO)NC(=O)[C@H](CS)NC(=O)[C@H](CO)NC(=O)[C@@H](N)Cc1c[nH]cn1)[C@@H](C)CC)[C@@H](C)O)[C@@H](C)O)C(=O)N[C@H](C(=O)N[C@@H](CCCNC(=N)N)C(=O)N[C@@H](CC(C)C)C(=O)N[C@@H](CCC(=O)O)C(=O)N[C@@H](CCC(N)=O)C(=O)N[C@@H](CCC(N)=O)C(=O)N1CCC[C@H]1C(=O)O)[C@@H](C)CC` [BPB4EDB] (H-HSCSSPIQGSWTWENGKWTWKGIIRLEQQP-OH; N-terminus and C-terminus assumed), for which the “fold increase in affinity compared with BPB1” value in test [1] (through the optimization system) stood at 21 fold.

`CC(C)[C@H](NC(=O)[C@H](CCC(N)=O)NC(=O)[C@@H]1CCCN1C(=O)[C@H](Cc1c[nH]cn1)NC(=O)[C@H](C)NC(=O)CNC(=O)[C@H](CCCCN)NC(=O)[C@H](Cc1c[nH]c2ccccc12)NC(=O)[C@@H](NC(=O)[C@H](Cc1c[nH]c2ccccc12)NC(=O)[C@H](CCCCN)NC(=O)CNC(=O)[C@H](CC(N)=O)NC(=O)[C@H](CCC(=O)O)NC(=O)[C@H](Cc1c[nH]c2ccccc12)NC(=O)[C@@H](NC(=O)[C@H](Cc1c[nH]c2ccccc12)NC(=O)[C@H](CO)NC(=O)CNC(=O)CNC(=O)CNC(=O)[C@H](CCCCN)NC(=O)[C@H](CCC(=O)O)NC(=O)[C@H](Cc1ccccc1)NC(=O)[C@H](CCC(N)=O)NC(=O)[C@@H]1CCCN1C(=O)[C@H](Cc1c[nH]cn1)NC(=O)[C@H](CO)NC(=O)[C@@H](N)Cc1c[nH]c2ccccc12)[C@@H](C)O)[C@@H](C)O)C(=O)N[C@@H](CCCNC(=N)N)C(=O)O` [Strep_opti1] (H-WSHPQFEKGGGSWTWENGKWTWKGAHPQVR-OH; N-terminus and C-terminus assumed): the “fold increase in affinity compared with control peptide WSHPQFEK” value in test [2] was 1223 fold. In addition, the “specificity (phage ELISA absorbance at 450 nm)” value in test [3] is “specifically bind to streptavidin”.

Turning to `CC[C@H](C)[C@H](NC(=O)CNC(=O)[C@H](CCCCN)NC(=O)[C@H](Cc1c[nH]c2ccccc12)NC(=O)[C@@H](NC(=O)[C@H](Cc1c[nH]c2ccccc12)NC(=O)[C@H](CCCCN)NC(=O)CNC(=O)[C@H](CC(N)=O)NC(=O)[C@H](CCC(=O)O)NC(=O)[C@H](Cc1c[nH]c2ccccc12)NC(=O)[C@@H](NC(=O)[C@H](Cc1c[nH]c2ccccc12)NC(=O)[C@H](CO)NC(=O)CNC(=O)[C@H](CCC(N)=O)NC(=O)[C@@H](NC(=O)[C@@H]1CCCN1C(=O)[C@H](CO)NC(=O)[C@H](CO)NC(=O)[C@@H](N)CS)[C@@H](C)CC)[C@@H](C)O)[C@@H](C)O)C(=O)N[C@H](C(=O)N[C@@H](CCCNC(=N)N)C(=O)N[C@@H](CC(C)C)C(=O)N[C@@H](CCC(=O)O)C(=O)N[C@@H](CCC(N)=O)C(=O)O)[C@@H](C)CC` [peptide 3] (H-CSSPIQGSWTWENGKWTWKGIIRLEQ-OH; N-terminus and C-terminus assumed), in test [1] (SPR, target binding kinetics), the Koff is recorded as 5.1 × 10^−4 S^−1, the Kon is on record as 3.0 × 10^4 M^−1S^−1 and the Kd came out at 16 nM.

In the case of “GNQWFIGGGSWTWENGKWTWKGRIPKNR (VEGFR1_opti1)”, in test [4] (at 5 μM peptide), the SPR response increase turned out to be 45 RU. Further, the “fold increase in affinity versus control peptide” value in test [4] (from RU at 5 μM versus 200 μM) is on record as “about 360 fold”.

With “WSHPQFEKGGGSWTWENGKWTWKG TLIHPM [Strep_opti2]”, in test [3], the “specificity (phage ELISA absorbance at 450 nm)” value is on record as “specifically bind to streptavidin”.
